The results in this text go back to paper PMC8151276, “An Integrated Approach toward NanoBRET Tracers for Analysis of GPCR Ligand Engagement” (Molecules, 2021).

The structures appear in SMILES notation.

Common to all, as to format: binding
In experiment [1] the target is T1, HTR1D (Homo sapiens, UniProt P28221).
T1 construct: purchased Promega (in-house HiBiT-GPCR construct library, NanoBRET)
Nature of the experiment: NanoBRET screen HiBiT-HTR1D in HEK293. How it is done:
(§1) Each tracer candidate was screened across the entire library of HiBiT-GPCR constructs using NanoBRET as the detection modality. As depicted in Figure 4A, the specificity of interactions was evaluated through decrease in BRET due to competitive displacement of a bound tracer by excess parental compound. Each tracer was analyzed for binding to each HiBiT-GPCR fusion in the absence and in the presence of competing parental compound. Briefly, HEK293 cells were transfected with HiBiT-GPCR constructs diluted into promoterless DNA to reduce expression and maximize translocation to the cell surface. Each tracer candidate was then screened at concentrations of 1 μM and 0.1 μM across cells expressing these fusions. Cells were treated for 1.5 h with tracer either alone or in the presence of 20 μM competing parental compound (i.e., control). BRET was measured upon addition of purified LgBiT and subsequent complementation with HiBiT genetically fused to a GPCR. The specificity of interactions was assessed through a decrease in BRET signal due to competitive displacement of the bound tracer. To further gauge the robustness of these interactions, the fold response over the control (i.e., BRETtracer/BRETcontrol) was calculated. We chose a 1.5-fold response, which translates to ≥7-fold signal over noise as the minimal threshold required to score an interaction as positive. […]. Below we highlight the screening results obtained for our exemplary fluorescent tracers based on Clozapine, Amitriptyline and AZD1283.
(§2) HiBiT-GPCR DNA constructs were diluted in 10 mM Tris pH 8 to a final concentration of 0.01 μg/μL, arrayed in 96-well plates and stored at −20 °C. For transfection, HEK293 cells were suspended in Opti-MEM (without phenol red) supplemented with 2% fetal bovine serum (Seradigm) and 100 units/mL penicillin–streptomycin (Gibco) at a final concentration of 220,000 cells/mL and dispensed into white 96-well plates at 90 μL/well. Subsequent transfections and screens were carried using an Agilent Bravo Automated Liquid Handling Platform. First, the 96-well HiBiT DNA arrays were diluted 25-fold in Opti-MEM (without serum or phenol red) to a final concentration of 0.0004 μg/μL and 20 μL of the diluted DNAs were transferred into new 96-well plates. Next, promoterless carrier DNA (1 μg/μL) was diluted 25-fold (0.04 μg/μL) and then dispensed into the diluted arrays at 20 μL/well. Following brief mixing, Viafect transfection reagent (Promega) diluted 16-fold into Opti-MEM was dispensed into the plates at 40 μL/well. After mixing by pipetting, plates were incubated for 10 min on the pipetting station deck. The DNA-transfection reagent complexes were then added to plates containing cells. To facilitate the screen, 10 μL of DNA-transfection reagent complexes were added in duplicates to the top 4 and bottom 4 rows, resulting in two identical 48-well arrays per plate. Plates with transfected cells were incubated for 18–20 h at 37 °C/5% CO2. A screen of each tracer across the entire library using two different concentrations requires duplicate plates of transfected cells. Depending on the number of tracers being screened, transfections can be scaled up using the same ratios. The next day, for each tracer, four 20× screening solutions in tracer dilution buffer (Promega) were prepared: two duplicates at final concentration of 20 μM and two duplicates at a final concentration of 2 μM. A competing unmodified compound was added to one of each duplicate at a final concentration of 400 μM. The four resulting solutions were diluted 4-fold in Opti-MEM without serum or phenol red to generate 5× solutions (5 µM and 0.5 µM tracer +/− 100 μM competing compound). To screen the library, a BioTek MultiFlo FX liquid dispenser was used to dispense 22.5 µL of tracer solution to the top 4 rows and 22.5 µL tracer + competing compound solution to the 4 bottom rows. Plates were briefly mixed on an orbital shaker and incubated for 1.5 h at room temperature. […]
In general terms: In BRET a luciferase serves as donor, and the signal depends on an acceptor being close.

Experiment [2] deals with T2, NMUR2 (Homo sapiens, UniProt Q9GZQ4).
T2 construct: purchased Promega (in-house HiBiT-GPCR construct library, NanoBRET)
Nature of the experiment: NanoBRET screen HiBiT-NMUR2 in HEK293. Here is the method:
as §1, §2

Experiment [3] deals with T3, P2RY10 (Homo sapiens, UniProt O00398).
T3 construct: purchased Promega (in-house HiBiT-GPCR construct library, NanoBRET)
Nature of the experiment: NanoBRET screen HiBiT-P2RY10 in HEK293. How it is done: as §1, §2

Experiment [4] deals with T4, P2RY11 (Homo sapiens, UniProt Q96G91).
T4 construct: purchased Promega (in-house HiBiT-GPCR construct library, NanoBRET)
T4 sequence (Q96G91 1-374): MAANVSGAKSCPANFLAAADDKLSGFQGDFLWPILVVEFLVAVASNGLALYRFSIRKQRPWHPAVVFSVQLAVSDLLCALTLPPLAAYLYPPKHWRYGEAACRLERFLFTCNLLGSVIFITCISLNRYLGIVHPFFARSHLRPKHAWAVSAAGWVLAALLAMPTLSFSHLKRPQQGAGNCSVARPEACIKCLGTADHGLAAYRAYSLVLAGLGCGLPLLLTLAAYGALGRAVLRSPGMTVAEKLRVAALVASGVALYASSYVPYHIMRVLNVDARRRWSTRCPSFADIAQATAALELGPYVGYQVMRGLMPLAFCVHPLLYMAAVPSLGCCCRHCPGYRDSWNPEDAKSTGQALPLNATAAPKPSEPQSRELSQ
Nature of the experiment: NanoBRET screen HiBiT-P2RY11 in HEK293. Here is the method:
as §1, §2

The target of experiment [5] is T5, CX3CR1 (Homo sapiens, UniProt P49238).
T5 construct: purchased Promega (in-house HiBiT-GPCR construct library, NanoBRET)
T5 sequence (P49238 1-355): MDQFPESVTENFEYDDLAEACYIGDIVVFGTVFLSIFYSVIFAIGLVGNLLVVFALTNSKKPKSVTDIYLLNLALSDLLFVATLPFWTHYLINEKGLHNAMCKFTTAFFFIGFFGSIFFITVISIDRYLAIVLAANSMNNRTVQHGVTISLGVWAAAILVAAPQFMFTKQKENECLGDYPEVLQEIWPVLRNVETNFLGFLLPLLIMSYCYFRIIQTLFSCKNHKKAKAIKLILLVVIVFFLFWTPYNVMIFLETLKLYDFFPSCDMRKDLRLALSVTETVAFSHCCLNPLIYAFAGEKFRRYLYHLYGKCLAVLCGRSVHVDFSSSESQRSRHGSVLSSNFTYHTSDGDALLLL
Briefly: NanoBRET screen HiBiT-CX3CR1 in HEK293. Here is the method:
as §1, §2

T3 sequence (O00398 whole entry, one chain of several): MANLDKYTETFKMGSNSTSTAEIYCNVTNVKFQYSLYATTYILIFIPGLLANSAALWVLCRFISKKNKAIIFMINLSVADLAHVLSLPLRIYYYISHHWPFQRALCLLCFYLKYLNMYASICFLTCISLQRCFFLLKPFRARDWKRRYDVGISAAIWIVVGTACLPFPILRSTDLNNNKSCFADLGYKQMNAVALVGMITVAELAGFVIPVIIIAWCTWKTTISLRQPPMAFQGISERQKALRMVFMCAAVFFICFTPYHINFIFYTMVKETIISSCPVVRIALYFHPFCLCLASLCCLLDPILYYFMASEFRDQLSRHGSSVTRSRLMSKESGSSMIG
T2 sequence (Q9GZQ4 whole entry): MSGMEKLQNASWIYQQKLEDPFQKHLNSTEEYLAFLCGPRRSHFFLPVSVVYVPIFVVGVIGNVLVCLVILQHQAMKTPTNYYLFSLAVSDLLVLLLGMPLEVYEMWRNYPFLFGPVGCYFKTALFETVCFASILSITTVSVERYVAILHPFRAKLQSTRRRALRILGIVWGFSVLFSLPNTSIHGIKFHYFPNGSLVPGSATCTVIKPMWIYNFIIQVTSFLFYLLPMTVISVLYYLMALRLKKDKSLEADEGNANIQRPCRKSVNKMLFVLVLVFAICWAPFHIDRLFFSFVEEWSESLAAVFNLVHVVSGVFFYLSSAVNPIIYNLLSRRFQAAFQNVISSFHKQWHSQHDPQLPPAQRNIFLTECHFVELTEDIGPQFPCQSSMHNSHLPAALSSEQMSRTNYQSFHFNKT
T1 sequence (P28221 whole entry): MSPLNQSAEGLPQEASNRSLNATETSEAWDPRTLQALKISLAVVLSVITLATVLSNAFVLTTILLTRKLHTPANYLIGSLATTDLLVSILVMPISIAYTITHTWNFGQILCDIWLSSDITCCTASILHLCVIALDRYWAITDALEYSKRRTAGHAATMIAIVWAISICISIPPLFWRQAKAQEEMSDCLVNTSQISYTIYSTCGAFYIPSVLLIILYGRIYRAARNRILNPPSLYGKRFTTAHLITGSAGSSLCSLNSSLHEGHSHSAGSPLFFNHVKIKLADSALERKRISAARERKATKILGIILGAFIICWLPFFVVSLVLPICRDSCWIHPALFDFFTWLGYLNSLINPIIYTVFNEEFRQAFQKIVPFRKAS

For the molecule `COc1ccc2c(n1)c(CCNC(C)=O)cn2CCNC(=O)CCc1ccc2n1[B-](F)(F)[N+]1=C(c3ccc[nH]3)C=CC1=C2` [Azamelatonin-1-NB590], the “NanoBRET Fold Response” value in experiment [1] (0.1μM tracer) was determined as 0.68; in experiment [1] (1μM tracer) it was 0.68; in experiment [2] (0.1μM tracer) it was 1.00; in experiment [2] (1μM tracer) it was 1.16; in experiment [3] (0.1μM tracer), 0.88; in experiment [3] (1μM tracer), 0.88. Further, the “NanoBRET Fold Response” value in experiment [4] (0.1μM tracer) is recorded as 0.89; in experiment [4] (1μM tracer), 0.89; in experiment [5] (0.1μM tracer), 0.93; in experiment [5] (1μM tracer), 1.05.

For the molecule `CC(C)N(CC[C@H](c1ccccc1)c1cc(CCNC(=O)c2ccc(CNC(=O)CCc3ccc4n3[B-](F)(F)[N+]3=C(c5ccc[nH]5)C=CC3=C4)cc2)ccc1O)C(C)C` [Tolterodine-BZ-NB590], the “NanoBRET Fold Response” value is recorded as 1.27 in experiment [1] (HTR1D, tracer 0.1μM); 0.92 in experiment [1] (HTR1D, tracer 1μM); 1.00 in experiment [2] (NMUR2, tracer 0.1μM); 1.06 in experiment [2] (NMUR2, tracer 1μM); 1.34 in experiment [3] (P2RY10, tracer 0.1μM); 0.76 in experiment [3] (P2RY10, tracer 1μM). Besides, the “NanoBRET Fold Response” value was 1.07 in experiment [4] (P2RY11, tracer 0.1μM); 0.96 in experiment [4] (P2RY11, tracer 1μM); 0.94 in experiment [5] (CX3CR1, tracer 0.1μM); 0.98 in experiment [5] (CX3CR1, tracer 1μM).

In the case of `O=C(CCc1ccc2n1[B-](F)(F)[N+]1=C(c3ccc[nH]3)C=CC1=C2)NCCOCCOCCNC(=O)OCCOCCN1CCN(C2=Nc3ccccc3Sc3ccccc32)CC1` [Quetiapine-a-2-NB590], the “NanoBRET Fold Response” value amounted to 1.02 in experiment [1] (HTR1D, tracer 0.1μM); 1.32 in experiment [1] (HTR1D, tracer 1μM); 1.02 in experiment [2] (NMUR2, tracer 0.1μM); 0.82 in experiment [2] (NMUR2, tracer 1μM); 0.94 in experiment [3] (P2RY10, tracer 0.1μM); 0.95 in experiment [3] (P2RY10, tracer 1μM). Further, the “NanoBRET Fold Response” value in experiment [4] (P2RY11, tracer 0.1μM) was found to be 1.05; in experiment [4] (P2RY11, tracer 1μM), 0.91; in experiment [5] (CX3CR1, tracer 0.1μM), 0.90; in experiment [5] (CX3CR1, tracer 1μM), 0.95.

For the molecule `Cc1cc2c(s1)Nc1ccccc1N=C2N1CCN(CCCNC(=O)CCOCCOCCOCCOCCNC(=O)CCc2ccc3n2[B-](F)(F)[N+]2=C(c4ccc[nH]4)C=CC2=C3)CC1` [Olanzapine-a-2-NB590], the “NanoBRET Fold Response” value in experiment [1] (HTR1D, tracer 0.1μM) is 1.03; in experiment [1] (HTR1D, tracer 1μM), 1.29; in experiment [2] (NMUR2, tracer 0.1μM), 0.94; in experiment [2] (NMUR2, tracer 1μM), 0.98; in experiment [3] (P2RY10, tracer 0.1μM) it was 0.99; in experiment [3] (P2RY10, tracer 1μM), 1.15. Also, the “NanoBRET Fold Response” value in experiment [4] (P2RY11, tracer 0.1μM) is reported as 1.00; in experiment [4] (P2RY11, tracer 1μM), 0.89; in experiment [5] (CX3CR1, tracer 0.1μM) it was 1.03; in experiment [5] (CX3CR1, tracer 1μM), 0.97.

Take `O=C(CCc1ccc2n1[B-](F)(F)[N+]1=C(c3ccc[nH]3)C=CC1=C2)NCc1ccc(C(=O)NCCOCCOCCNCC(O)COc2cccc3ccccc23)cc1` (stereo not shown) [Propranolol-3-NB590]: the “NanoBRET Fold Response” value is recorded as 1.24 in experiment [1] (HTR1D, 0.1μM); 0.96 in experiment [1] (HTR1D, 1μM); 1.06 in experiment [2] (NMUR2, 0.1μM); 1.08 in experiment [2] (NMUR2, 1μM); 1.34 in experiment [3] (P2RY10, 0.1μM); 0.95 in experiment [3] (P2RY10, 1μM). The “NanoBRET Fold Response” value in experiment [4] (P2RY11, 0.1μM) is reported as 1.03; in experiment [4] (P2RY11, 1μM), 0.96; in experiment [5] (CX3CR1, 0.1μM), 1.08; in experiment [5] (CX3CR1, 1μM), 1.03.

Consider `N#CN/C(=N\CCNC(=O)c1ccc(N)cc1)NCCCOc1cccc(CN2CCCCC2)c1` [Aminopotentidine (unmodified)], for which the “NanoBRET Fold Response” value in experiment [1] (HTR1D, other tracers/Aminopotentidine (unmodified), 0.1μM) was determined as 1.06; in experiment [1] (HTR1D, other tracers/Aminopotentidine (unmodified), 1μM), 1.50.

`CN1CCN(C2=Nc3cc(Cl)ccc3N(CC(=O)NCCOCCOCCOCCOCCNC(=O)CCc3ccc4n3[B-](F)(F)[N+]3=C(c5ccc[nH]5)C=CC3=C4)c3ccccc32)CC1` [Clozapine-c-2-NB590]: the “NanoBRET Fold Response” value turned out to be 1.00 in experiment [1] (HTR1D, 0.1μM tracer); 1.00 in experiment [1] (HTR1D, 1μM tracer); 1.12 in experiment [2] (NMUR2, 0.1μM tracer); 0.92 in experiment [2] (NMUR2, 1μM tracer); 1.06 in experiment [3] (P2RY10, 0.1μM tracer); 0.98 in experiment [3] (P2RY10, 1μM tracer). The “NanoBRET Fold Response” value is 0.93 in experiment [4] (P2RY11, 0.1μM tracer); 0.98 in experiment [4] (P2RY11, 1μM tracer); 0.95 in experiment [5] (CX3CR1, 0.1μM tracer); 0.92 in experiment [5] (CX3CR1, 1μM tracer).

`COc1ccccc1N1CCN(CCCCN2C(=O)c3ccc(CNC(=O)CCOCCOCCOCCOCCNC(=O)CCc4ccc5n4[B-](F)(F)[N+]4=C(c6ccc[nH]6)C=CC4=C5)cc3C2=O)CC1` [NAN-190-2-NB590]: the “NanoBRET Fold Response” value was 1.35 in experiment [1] (HTR1D, tracer 0.1μM); 1.41 in experiment [1] (HTR1D, tracer 1μM); 0.95 in experiment [3] (P2RY10, tracer 1μM); 1.09 in experiment [4] (P2RY11, tracer 0.1μM); 0.99 in experiment [4] (P2RY11, tracer 1μM); 0.99 in experiment [5] (CX3CR1, tracer 0.1μM). Further, the “NanoBRET Fold Response” value in experiment [5] (CX3CR1, tracer 1μM) is given as 0.86.

With `CN(CCC=C1c2ccccc2CCc2ccccc21)C(=O)CCOCCOCCOCCOCCNC(=O)CCc1ccc2n1[B-](F)(F)[N+]1=C(c3ccc[nH]3)C=CC1=C2` [Amitriptyline-e-2-NB590], the “NanoBRET Fold Response” value in experiment [1] (tracer at 1μM) worked out at 0.96; in experiment [3] (tracer at 1μM) it was 0.99; in experiment [4] (tracer at 1μM) it was 1.13; in experiment [5] (tracer at 1μM) it was 0.99.
